We go through four substances from US6911316B1, “Medical uses of scuPA/suPAR complex” (Thrombotech Ltd., priority 1996, dated 2005).

Where “and” joins values, the source holds several entries; their conditions need not be identical. Equal entries are not always repeated.

The test system of one assay is human IgG. Put plainly: Binding of 125I-suPAR to IgG, precipitation with protein G. Conditions: for precipitation by protein G from native plasma: 50 nM radiolabeled protein, FIG. 11. The method, then:
Plasma (5 ml) were incubated with 1 ml of IgG (bound to beads, as described) for 2 hr, at 4° C. The beads were precipitated by centrifugation and the plasma was decanted and used for precipitation of radiolabeled suPAR or for formation of clots after addition of thrombin, as described herein before.
(§1) Binding of ^125I-suPAR to IgG was determined by incubation of 50 nM radiolabeled suPAR, 0.1 ml plasma and 0.5 ml of IgG protein, for 2 hr at 4° C. Following incubation, the mixture was centrifugated. The precipitate was washed 4 is times with PBS and the radioactivity incorporated into protein G was determined. Non-specific binding was determined by using plasma that had been depleted of IgG or by measuring the precipitation of irrelevant protein. All experiments were repeated at least three times.

In the next assay the test system is human plasma clot. Description: Fibrinolysis of clot formed by thrombin from human plasma (lytic zones / solubilized radioactivity). Format: biochemical. The method, then:
Fibrinogen containing plasminogen was reconstituted in phosphate buffered saline (PBS), pH 7.4 or in serum to a concentration of 3 mg/ml. Fibrin clots were prepared by the addition of 0.025 NIH units of human thrombin per […] fibrinogen solution. The mixture was decanted onto the lid of a culture dish and incubated for 60 min at room temperature. After clot formation, portions of 10 μl of PBS containing 1 μM scuPA, with or without an equimolar concentration of suPAR, were placed on several parts of the surface of the clot. The clot was incubated for 2 to 3 hr at 37° C., until the appearance of digestion areas on the surface. At that stage the clot was washed several times with PBS and incubated overnight with 0.2° trappan blue. On the following day, the clot was rinsed 4 is times with PBS and photographed The pictures were scanned with a Hoefer GS 300 scanning densitometer. The size of the lytic zones was calculated by the NIH image program. […]
Human fibrinogen (Sigma. St. Louis, Mo.) was radiolabeled with ^125I [Higazi, A A-R. & Abu-Much R. et al. J. Biol. Chem. 270:9472-9477 (1995)]. ^125I-labeled fibrinogen was added to a solution of PBS, pH 7.4, containing either 3 mg/ml fibrinogen and 1 μM glu-plasminogen or plasma. […] For determination of fibrinolysis, plasminogen activating agents (1 μM) or 1376 MAT cells, in a total volume of 10 μl each, were directly added to the center of the clot and after incubation for specific periods, the wells were washed and the radioactivity of the lavage solution was determined by means of a gamma counter. Fibrinolysis was also measured as previously described [Higazi, A A-R., et al. Biochem. J. 300:251-255 (1994)], by addition of 0.4 ml of serum or PBS, containing 25 nM of the plasminogen activator agent (scuPA, scuPA/suPAR complex or tcuPA). […] Fibrinolytic activity was determined by following the release from the ^125I-labeled fibrin clot of labeled soluble degradation products of fibrin and is illustrated in FIGS. 7 and 8.

In the next assay the test system is plasminogen. The conditions noted are these: cited from earlier work.
Assay [1] concerns radiolabeled plasma-derived clot. Put plainly: Lysis of radiolabeled plasma-derived clot covered with serum or PBS containing the plasminogen activator. Format: biochemical, human. The protocol: (§2) Human fibrinogen (Sigma. St. Louis, Mo.) was radiolabeled with ^125I [Higazi, A A-R. & Abu-Much R. et al. J. Biol. Chem. 270:9472-9477 (1995)]. ^125I-labeled fibrinogen was added to a solution of PBS, pH 7.4, containing either 3 mg/ml fibrinogen and 1 μM glu-plasminogen or plasma. Clots were formed in wells of tissue culture plates with an inner diameter of 16 mm (Costar, Cambridge, Mass.). To initiate the clot formation, 10 μl of a solution containing 2 NIH units of thrombin (Sigma. St. Louis, Mo.) were added to 0.4 ml of fibrinogen solution or to plasma. For determination of fibrinolysis, plasminogen activating agents (1 μM) or 1376 MAT cells, in a total volume of 10 μl each, were directly added to the center of the clot and after incubation for specific periods, the wells were washed and the radioactivity of the lavage solution was determined by means of a gamma counter. Fibrinolysis was also measured as previously described [Higazi, A A-R., et al. Biochem. J. 300:251-255 (1994)], by addition of 0.4 ml of serum or PBS, containing 25 nM of the plasminogen activator agent (scuPA, scuPA/suPAR complex or tcuPA). The plates were incubated at 37° C. in an incubator for the required time (about 2 hours, see legends to the Figures). Aliquots of 25 μl were removed at the specific time point for counting of the solubilized label in a gamma counter. Fibrinolytic activity was determined by following the release from the ^125I-labeled fibrin clot of labeled soluble degradation products of fibrin and is illustrated in FIGS. 7 and 8.

The test system of a further assay is human fibrinogen. Description: Fibrinolysis of human fibrinogen clot (not shown). Conditions: human fibrinogen instead of bovine. The class given is biochemical. The method, then:
(§3) Fibrinogen containing plasminogen was reconstituted in phosphate buffered saline (PBS), pH 7.4 or in serum to a concentration of 3 mg/ml. Fibrin clots were prepared by the addition of 0.025 NIH units of human thrombin per […] fibrinogen solution. The mixture was decanted onto the lid of a culture dish and incubated for 60 min at room temperature. After clot formation, portions of 10 μl of PBS containing 1 μM scuPA, with or without an equimolar concentration of suPAR, were placed on several parts of the surface of the clot. The clot was incubated for 2 to 3 hr at 37° C., until the appearance of digestion areas on the surface. At that stage the clot was washed several times with PBS and incubated overnight with 0.2° trappan blue. On the following day, the clot was rinsed 4 is times with PBS and photographed The pictures were scanned with a Hoefer GS 300 scanning densitometer. The size of the lytic zones was calculated by the NIH image program.

A further assay has as its system IgG. Description: Binding of suPAR to IgG with rabbit serum. The conditions noted are these: rabbit serum instead of human serum, data not shown. The protocol:
as §1

Assay [2] concerns purified bovine fibrinogen clot. Description: Fibrinolysis of purified fibrinogen clot, size of lytic zones. Format: biochemical. The protocol: as §3
Assay [3] has as its system 125I radiolabeled fibrinogen clots. Put plainly: Lysis of 125I radiolabeled fibrinogen clot, activator added directly to the clot, solubilized radioactivity. The class given is biochemical, human. The conditions noted are these: 2 hrs. The method, then:
as §2, with “The plates were incubated at 37° C. in an incubator for the required time (about 2 hours, see legends to the Figures). Aliquots of 25 μl were removed at the specific time point for counting of the solubilized label in a gamma counter.” left out

The subject of assay [4] is bovine fibrinogen clot reconstituted in serum. Put plainly: Fibrinolysis of bovine fibrinogen clot reconstituted in serum. The class given is biochemical. Conditions: FIG. 5. The method, then:
as §3
In an experiment designed to test the possibility that the different effects were related to the source of fibrinogen, the fibrinogen was removed from plasma by clotting with thrombin and removal of the clot by centrifugation to obtain serum. […] The possibility that the stimulatory activity was derived from the anticoagulants present in plasma was considered.

For the next assay, the target named is PAI-1 (Homo sapiens, UniProt P05121). Conditions: cited from earlier work.
In assay [5] the test system is clot prepared from IgG-depleted plasma. Description: Lysis of clots derived from normal or IgG-depleted plasma. Format: biochemical, human. Conditions: versus clot from normal plasma, FIG. 13. The protocol:
as §2, with “The plates were incubated at 37° C. in an incubator for the required time (about 2 hours, see legends to the Figures). Aliquots of 25 μl were removed at the specific time point for counting of the solubilized label in a gamma counter.” left out, “8. […]” for “8.”

The test system of assay [6] is radiolabeled fibrinogen-derived clot. Put plainly: Lysis of radiolabeled fibrinogen-derived clot covered with serum or PBS containing the plasminogen activator. The class given is biochemical, human. The protocol:
as §2, with “The plates were incubated at 37° C. in an incubator for the required time (about 2 hours, see legends to the Figures). Aliquots of 25 μl were removed at the specific time point for counting of the solubilized label in a gamma counter.” left out

The test system of assay [7] is radiolabeled fibrinogen-derived clot containing 1 μM glu-plasminogen. Description: Fibrinolytic activity of suPAR-Sepharose precipitates on fibrinogen-derived clot. Format: biochemical, human. The conditions noted are these: FIG. 10. The method, then:
as §2, with “The plates were incubated at 37° C. in an incubator for the required time (about 2 hours, see legends to the Figures). Aliquots of 25 μl were removed at the specific time point for counting of the solubilized label in a gamma counter.” left out, “8. […]” for “8.”

The mark [8] stands for this setting: plasma derived clot covered by serum, FIG. 8.

Chain of PAI-1 (P05121 24-402, species assumed): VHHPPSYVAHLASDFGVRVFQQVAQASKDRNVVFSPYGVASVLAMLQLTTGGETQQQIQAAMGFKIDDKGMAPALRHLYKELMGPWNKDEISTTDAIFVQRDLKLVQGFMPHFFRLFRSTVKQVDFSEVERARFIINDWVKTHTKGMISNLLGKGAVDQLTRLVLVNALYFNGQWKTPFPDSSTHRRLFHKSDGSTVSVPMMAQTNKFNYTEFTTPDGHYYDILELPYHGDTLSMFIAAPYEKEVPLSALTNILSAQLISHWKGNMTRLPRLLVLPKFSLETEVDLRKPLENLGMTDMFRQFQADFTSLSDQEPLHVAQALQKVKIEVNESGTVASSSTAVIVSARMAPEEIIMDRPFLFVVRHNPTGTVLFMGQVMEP

In the case of “plasminogen: radiolabeled plasminogen used as irrelevant protein control in the protein G precipitation [reference compound]”, the “precipitation by protein G from native plasma” value in the assay on human IgG is listed as “not precipitated”.

On to “suPAR: soluble urokinase plasminogen activator receptor”, for which, in the assay with human plasma clot (plasma clots, FIG. 2), the “enhancement of scuPA-mediated fibrinolysis by addition of suPAR” value is on record as “up to 14 fold”. In the assay with plasminogen (plasmin substrate Spect PL), the “effect of suPAR on scuPA activity” value was “stimulated”. For the same substance, the “effect of suPAR on scuPA-mediated plasminogen activation” value with plasminogen (synthetic plasmin substrate S-2251) is given as “inhibit”. Besides, the “effect of suPAR alone on fibrinolysis” value in [1] (plasma clot, FIG. 6) was “depends on the presence of scuPA”. The “effect of addition of suPAR to tcuPA” value in assay [1] (setting [8]) is on record as “small stimulatory effect”. The “inhibition of scuPA activity by suPAR” value in the assay with human fibrinogen is “also observed”. The “interaction between IgG and suPAR” value in the assay with IgG is on record as “no interaction”. In addition, the “inhibition of scuPA activity in the presence of suPAR” value is on record as “about 40%” in assay [2] (unlabeled bovine fibrinogen clot, equimolar suPAR) and around 50% in [3]. Moreover, the “precipitation by protein G from native plasma” value with human IgG was “immunoprecipitates”. In addition, in the assay on human IgG (FIG. 12), the “precipitation with purified human IgG instead of plasma” value is reported as “the same results were obtained”. In the assay with human IgG (IgG-depleted plasma versus native plasma), the “precipitation of suPAR with IgG-depleted plasma” value is “less than 25%”.

“ATF: amino-terminal fragment of urokinase; blocks interaction of scuPA with suPAR [reference compound]”: in assay [4] (bovine fibrinogen clot in serum), the “effect of ATF on the stimulatory effect of suPAR” value was “can be abolished”. The “effect of ATF on the stimulatory effect of suPAR on scuPA-mediated fibrinolysis” value in the assay on human plasma clot (plasma clot, FIG. 3) is reported as “almost complete inhibition”. For the same substance, the “effect of ATF on scuPA/suPAR mediated fibrinolysis” value in [1] (250 nM ATF, plasma clot covered with serum) is “significantly inhibited”.

“scuPA/suPAR complex: complex comprising single chain urokinase type plasminogen activator (scuPA) and soluble urokinase plasminogen activator receptor (suPAR)”: the “efficiency of clot cleavage compared with scuPA alone” value in assay [4] (purified bovine fibrinogen added to serum) is listed as “greater efficiency than by scuPA alone”. Further, in the assay with PAI-1, the “mechanism of PAI-1 inhibition” value was “competitive and reversible”; the “susceptibility of activity to PAI-1” value is “relatively resistant”. Further, the “size of the lytic area” value with human plasma clot (human plasma clot, FIG. 2(A) lane (c), upper and lower panels, listed as scuPA and suPAR) was 0.94 cm^2 and 0.90 cm^2. Moreover, the “change of activity when a plasma clot is used instead of a fibrinogen clot” value in [1] (FIG. 8) is reported as “increase”. The “effect of PBS instead of serum on the surface of the clot on fibrinolytic activity” value in [1] (plasma clot) is listed as “not affected”. Moreover, in assay [1] (plasma clot covered with serum, 25 nM activator), the “time to half maximal fibrinolysis” value was found to be 54 min. Further, the “time to half maximal fibrinolysis” value in assay [1] (plasma clot covered with serum, 50% decrease of the concentration of the complex, data not shown) is 102 min. Besides, the “time needed for half maximal fibrinolysis” value in [1] (plasma clot covered with serum, doubling the concentration of the complex, data not shown) is 33 min. Besides, the “activity on clot formed by clotting of plasma compared with tcuPA” value in assay [1] (setting [8]) was “greater than that of tcuPA”. For the same substance, in assay [5], the “scuPA/suPAR mediated fibrinolysis of clot from IgG-depleted plasma” value was “markedly retarded”. In addition, the lytic area in assay [2] (purified bovine fibrinogen clot, FIG. 1(A), two wells each, listed as scuPA and suPAR) was 1.19 cm^2 and 1.05 cm^2. Moreover, in assay [6] (clot formed by purified fibrin covered with serum or PBS, FIG. 7), the “effect of serum covering the clot on fibrinolysis” value is reported as “stimulated”. Also, in assay [6] (purified fibrin clot covered with serum), the “fibrinolytic activity relative to that obtained on a plasma-derived clot” value is “about 60%”. In [7], the “fibrinolytic activity in the absence of plasma-derived protein(s)” value is given as “little fibrinolytic activity” and the “scuPA/suPAR-mediated fibrinolytic activity in the presence of plasma-derived protein(s)” value is listed as “significantly increased”.
